Data: patent US20040072825A1, “2-(2-(4-((2r)-2-methyl-3-(10h-phenothiazin-10-yl)propyl)-1-piperazinyl)-ethoxy) ethanol, process for the preparation thereof, pharmaceutical compositions containing said compound and therapeutic uses thereof” (priority 2000, published 2004)

Target: T1, D4.4 dopaminergic receptor (Homo sapiens, UniProt P21917)
T1 construct: expressed in transfected cells; host or cells: CHO
T1 sequence (P21917 1-419): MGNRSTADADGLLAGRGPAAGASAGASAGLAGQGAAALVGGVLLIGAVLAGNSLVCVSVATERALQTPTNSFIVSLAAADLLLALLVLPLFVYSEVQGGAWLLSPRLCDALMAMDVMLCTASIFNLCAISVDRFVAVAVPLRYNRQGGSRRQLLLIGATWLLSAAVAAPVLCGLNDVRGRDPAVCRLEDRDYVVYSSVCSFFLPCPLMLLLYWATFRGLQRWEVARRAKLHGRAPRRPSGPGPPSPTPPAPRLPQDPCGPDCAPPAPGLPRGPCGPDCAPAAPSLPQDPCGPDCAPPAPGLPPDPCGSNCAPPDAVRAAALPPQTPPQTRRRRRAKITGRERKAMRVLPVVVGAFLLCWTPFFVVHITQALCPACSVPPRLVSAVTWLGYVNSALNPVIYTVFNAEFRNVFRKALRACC
Assay: Radioligand binding, D4.4 receptor (CHO cell culture)
Method: The test substances, biological materials and experimental protocols used in the study are described in Moguilevsky N. et al. (1994) Eur. J. […] List S. J. (1981) Proc. Natl. Acad. Sci.78:2620-2624; MacKenzie R. G. et al. (1994) Eur. J. Pharmacol. 266:79-85; Van Tol et al., (1992) Nature, 358:149-152. […] Filtermat A, Walac), then washed with cold buffer using a filtration unit ‘Cell Harvester’ (Brandel, Packard or Tomtec). The bound radioactivity is measured using a scintillation liquid (Formula 989 or Microscint 0, Packard) or solid (Meltilex B/HS, Wallac), and a scintillation counter (LS 6000, Beckman; Topcount, Packard; Betaplate, Wallac). […] Each experiment was performed in duplicate (n=2). In parallel, a positive control (concentration of reference substance causing 50% inhibition of radioligand specific binding) is tested to validate the assay. For competition experiments, membranes are incubated in the buffer containing the radioligand and increasing concentrations of unlabeled test substances. Each binding assay is validated with a reference compound tested in parallel. […] where BO and BI represent the total binding in the absence and presence of the unlabelled drug (in dpm/assay) and NSB is the amount of non specific binding (in dpm/assay). Analysis of raw data and pIC50 calculation is performed by computerized non-linear curve fitting methods using a set of equations describing competitive interactions between labelled and unlabeled ligands which obey the law of mass action. IC50 represents the concentration of the test substance inhibiting 50% of the specific binding of the radioligand. It is determined in competitive binding experiments by measuring the binding of a single concentration of a radioactive ligand at equilibrium with various concentrations of the unlabeled test substance. pIC50=−log IC50

CC(CN1CCN(CCOCCO)CC1)CN1c2ccccc2Sc2ccccc21 (racemic) [Dixyrazine, 2-(2-(4-(2-methyl-3-(10H-phenothiazin-10-yl)propyl)-1-piperazinyl)ethoxy)ethanol, reference compound]
inhibition at 0.1 µM (D4.4, 0.1 μM, mean of duplicate, read-out: percent inhibition of control specific binding): 24%
percent inhibition of control specific binding (D4.4, 10 μM, mean of duplicate, 10 µM): 104%
inhibition at 10 µM (D4.4, 10 μM, mean of duplicate, read-out: percent inhibition of control specific binding): > 90%
IC50 (D4.4, competitive binding, read-out: Affinity pIC50 (-log IC50) (converted)): 398 nM
